Where “and” joins values, the source holds several entries; their conditions need not be identical. Identical values can stand only once. Values belong to the compound of their own block, whether it stands above or below them.
Assays:
sOGT = target: T1, sOGT (Homo sapiens, UniProt O15294); assay: Fluorescence polarization displacement screen with fluorescein-linked UDP-GlcNAc analog; type: binding; details: fluorescence displacement in vitro assay; for IC50: read-out: IC50 (sOGT inhibition)
T1 sequence (O15294 1-665 isoform O15294-4): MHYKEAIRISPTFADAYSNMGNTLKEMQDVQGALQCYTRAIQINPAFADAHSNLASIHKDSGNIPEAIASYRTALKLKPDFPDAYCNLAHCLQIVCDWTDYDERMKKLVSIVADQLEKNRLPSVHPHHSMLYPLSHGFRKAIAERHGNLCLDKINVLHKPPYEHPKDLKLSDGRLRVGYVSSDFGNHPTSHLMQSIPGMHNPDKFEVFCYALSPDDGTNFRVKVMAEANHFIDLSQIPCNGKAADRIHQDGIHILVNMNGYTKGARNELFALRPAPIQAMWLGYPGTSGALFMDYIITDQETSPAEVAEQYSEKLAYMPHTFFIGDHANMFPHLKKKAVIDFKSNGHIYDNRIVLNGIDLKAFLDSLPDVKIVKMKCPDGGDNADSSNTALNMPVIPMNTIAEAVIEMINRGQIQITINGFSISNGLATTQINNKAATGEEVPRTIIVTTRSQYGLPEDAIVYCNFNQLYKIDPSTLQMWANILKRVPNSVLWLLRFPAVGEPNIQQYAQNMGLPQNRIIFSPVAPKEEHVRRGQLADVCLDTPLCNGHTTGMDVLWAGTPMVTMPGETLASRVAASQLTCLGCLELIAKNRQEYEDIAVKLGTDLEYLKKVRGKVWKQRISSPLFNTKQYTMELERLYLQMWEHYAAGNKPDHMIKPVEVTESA
Description: About 1000 compound library was serially diluted in DMSO from the 5 mg/ml plates fivefold 3 times, such that 4 different concentrations of compounds were prepared. Compound libraries of the 4 concentrations in duplicated were then transferred to the assay plates using a 100 nL pin array, resulting in a final compound concentration of 25 μg/mL or ˜70 μM at the highest of the four concentrations, assuming an average compound MW of 350. Using a Perkin Elmer Envision® microplate reader, the sample was excited at 480 nm in the vertical plane, and simultaneous emission intensity (535 nm) of the vertical and horizontal polarization planes was measured. The polarization was calculated using the following equation:eq4: mP=1000*(V−G*H)/(V+G*H)where: mP=millipolarization units, V=intensity of vertically polarized emission (RFU), H=intensity of horizontally polarized emission (RFU), and G=gain.
Compounds were screened at […] different concentrations in a fluorescence displacement assay (FIG. 13A)^27. Using the known binding constant for the substrate analog, the dose-response data allowed us to estimate binding affinities (Ki values) for the hits. […] Various analogs were prepared based on a modular assembly (as in FIG. 13B), and OGT inhibition was assessed both in vitro and in cells.

CHO cells = assay: ApoTox-Glo cell viability, cytotoxicity and apoptosis signaling assay; type: cell-based, Chinese hamster
Description: Cell viability, cytotoxicity and apoptosis signaling assays were performed in a 96-well plate using ApoTox-Glo reagent (Promega) according to the manufacturer's instructions.

OGT in CHO cells = assay: Immunoblotting of global O-GlcNAcylation (RL2) in CHO cells; type: cell-based, Chinese hamster; details: 24 hours, up to 50 μM
Description: In vivo inhibition of glycosylation: For all immunoblotting experiments, CHO-K1 (CHO) cells were grown in F12-K media supplemented with 10% FBS and antibiotics at 37° C. in a 5% CO2 incubator. Cells were treated by adding indicated inhibitor in DMSO vehicle (0.5% final vehicle concentration) upon reaching 70% confluence. After indicated treatment length, cells were harvested by aspirating growth media and washing with ice cold 1× PBS. Cells were subsequently lysed in boiling 1% SDS/20 mM HEPES 7.9. After cooling to room temperature, 1 mM PMSF, 10 μM PUGNAC, 10 μM TMG and 1× Complete protease inhibitor cocktail were added to the solution. The mixture was sonicated and then subjected to a 5 minute incubation at 95° C. The samples were centrifuged for 15 minutes at 20,000×g and the supernatant was collected and the total protein was measured by BCA assay (BIO-RAD).
The sample was separated by SDS-PAGE (Bio-Rad 4-15%, Cat: 345-0028), transferred to a nitrocellulose membrane (iBlot, Invitrogen) and probed with the indicated antibody. Tyipcally, membranes were blocked with 4% BSA in 1× TBS+0.04% tween-20 for 1 hour before incubating with antibody (typically diluted 1:1000 in 4% BSA inlx TBS+0.04% tween-20) overnight at 4° C. Membranes were then washed three times with 1× TBS+0.04% tween-20 and incubated with secondary antibody (typically diluted 1:5000 in 4% BSA in 1× TBS+0.04% tween-20) for 1 hour at room temperature. Lastly, membranes were washed 3× with 1× TBS+0.04% tween-20 and imaged with ECL. D283-Med cells were treated as above but grown in F12-K media supplemented with 10% FBS and antibiotics. HEK, HeLa and LNCaP cells were treated as above but grown in RPMI media supplemented with 10% FBS and antibiotics.

ncOGT = target: T2, ncOGT (Homo sapiens, UniProt O15294); assay: Radiometric capture assay with Nup62 acceptor and UDP-14C-GlcNAc; type: biochemical
T2 construct: full length human OGT (ncOGT); made in house
T2 sequence (O15294 1-1046): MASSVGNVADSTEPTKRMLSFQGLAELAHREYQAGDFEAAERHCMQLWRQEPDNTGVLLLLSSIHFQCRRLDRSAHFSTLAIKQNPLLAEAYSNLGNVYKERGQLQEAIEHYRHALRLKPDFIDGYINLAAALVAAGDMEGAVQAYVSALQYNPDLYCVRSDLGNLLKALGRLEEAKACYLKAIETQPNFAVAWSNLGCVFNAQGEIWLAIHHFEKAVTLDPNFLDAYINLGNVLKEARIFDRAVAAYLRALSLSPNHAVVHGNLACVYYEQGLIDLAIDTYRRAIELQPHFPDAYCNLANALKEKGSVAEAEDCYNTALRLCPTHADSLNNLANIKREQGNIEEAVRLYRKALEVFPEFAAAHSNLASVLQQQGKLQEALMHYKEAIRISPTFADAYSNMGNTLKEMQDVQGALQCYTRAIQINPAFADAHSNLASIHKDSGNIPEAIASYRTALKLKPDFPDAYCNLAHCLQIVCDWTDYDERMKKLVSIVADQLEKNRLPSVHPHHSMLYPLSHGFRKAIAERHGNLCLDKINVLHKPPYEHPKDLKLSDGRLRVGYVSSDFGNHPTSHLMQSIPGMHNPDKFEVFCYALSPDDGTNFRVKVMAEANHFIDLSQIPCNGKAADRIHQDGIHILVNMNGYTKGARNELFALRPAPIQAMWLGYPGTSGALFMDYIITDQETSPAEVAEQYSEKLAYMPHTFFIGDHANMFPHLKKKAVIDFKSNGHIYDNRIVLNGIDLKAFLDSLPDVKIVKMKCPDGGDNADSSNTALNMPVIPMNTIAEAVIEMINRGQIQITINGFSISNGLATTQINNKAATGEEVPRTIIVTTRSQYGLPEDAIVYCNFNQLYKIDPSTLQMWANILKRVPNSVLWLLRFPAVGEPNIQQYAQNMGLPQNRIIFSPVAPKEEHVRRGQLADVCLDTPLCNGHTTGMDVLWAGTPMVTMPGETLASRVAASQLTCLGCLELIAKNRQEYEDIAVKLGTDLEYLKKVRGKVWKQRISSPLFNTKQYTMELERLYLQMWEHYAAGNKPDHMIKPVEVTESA
Description: Radiometric capture assay: Nucleoporin 62 (Nup62) was used as a model substrate. IC50 values of the both inhibitors were determined at range of 0 to 100 μM (eight point, duplicate). OGT antagonists were tested in a reaction mixture containing 18 μM Nup62, 6 μM UDP-^14C-GlcNAc, 100 nM ncOGT, and lx phosphate-buffered saline (1× PBS) (137 mM NaCl, 2.7 mM KCl, 10 mM Na2HPO4, and 1.8 mM KH2PO4, pH 7.4). The Nup62 glycosylation reactions were run for 15 min at 37° C. Reaction mixtures were subsequently quenched by spottinged on Whatman® Protran® nitrocellulose membrane, washed with 1× PBS three times for 15 minutes each. The membranes were air dried and then counted by liquid scintillation counting. The data were analyzed by Microsoft® Excel and Prism 6 (Graphpad®). Robust non-linear variable slope regressions were generated to determine the IC50 and Hill slope values.
In order to evaluate the mode of inhibition of OSMI-1 and UDP-5S-GlcNAc, a series of experiments, as outlined above, were performed with Nup62 as glycosylation substrate. The inhibition test of OSMI-1 was performed by varying the UDP-^14C-GlcNAc concentration from 0 to 0.25 mM while holding concentration of Nup62 constant at 10 μM with four different concentrations of OSMI-1 (0 to 2 μM) in 1× PBS with 100 nM ncOGT and with fixed and saturating concentrations of GST-Nup62 acceptor. The inhibition test of UDP-5S-GlcNAc was performed by varying the UDP-^14C-GlcNAc concentration from 0 to 1 mM while holding concentration of Nup62 constant at 10 μM with five different concentrations of UDP-5S-GlcNAc (0, 1, 5, 10, and 15 μM) in 1× PBS with 100 nM ncOGT. Each reaction was spotted on Whatman® grade P81 ion exchange chromatography paper circles, washed with 1× PBS three times for 15 minutes each. The membranes were air dried and then counted by liquid scintillation counting. Each assay was duplicated in parallel. The data were analyzed by Microsoft® Excel and Prism 6 (Graphpad®). The Michaelis-Menten plots and Ki of both inhibitors calculated under non-linear regression with competitive inhibition mode are shown in FIG. 5.

[1] = target: T3, full length human OGT (ncOGT) (Homo sapiens, UniProt O15294); assay: UDP-Glo luminescence-based coupled enzyme assay; type: biochemical; details: 40 μM UDP-GlcNAc, 125 μM CKII3K peptide; read-out: IC50 against ncOGT, coupled enzyme assay
T3 construct: made in house
T3 sequence (O15294 1-1046): T2 sequence (O15294 1-1046)
Description: UDP-Glo assay: Materials for this assay were obtained from Promega (catalog #V6961), and the experiment was performed largely as outlined by the manufacturer. IC50 values were determined in the range of 0 to 100 μM (eleven concentration points). Assays were performed either in white, 96-well or ½-volume 96-well, plates. This assay was run with 125 μM CKII3K peptide acceptor. Reaction volumes were between 14 (half volume plates) and 20 (normal volume plates) μL. Reactions contained the following components: 300 nM ncOGT, 125 μM CKII3K and 40 μM UDP-GlcNAc in 1× PBS pH 7.4 supplemented with 1 mM THP. Reactions were incubated for one hour at 25° C. and quenched by the addition of an equal volume of UDP-Glo nucleotide detection reagent, prepared and used according to manufacturer guidelines. The quenched reactions were then mixed briefly by shaking at 1800 rpm in a Thermomixer C, and incubated for one hour at room temperature prior to reading luminescence, as per the manufacturers guidelines. Data were analyzed by Microsoft Excel and Prism 6 (Graphpad). When evaluating the effect of sugar donor concentration, this parameter was varied, while all other conditions remained as described above. Each sample in this case was run in duplicate, unless otherwise specified. The 40 μM curve in FIG. 16C has each point in quadruplicate. Similarly, there is an n=9 for each point in the OSMI-1 curve in FIG. 16B.

- IC50 (sOGT): 7 µM
Structure (SMILES): CC(C)N(Cc1ccccc1)C(=O)[C@H](NS(=O)(=O)c1ccc2[nH]c(=O)ccc2c1)c1ccccc1

- IC50 (sOGT): 10 µM
Structure (SMILES): O=C([C@H](NS(=O)(=O)c1ccc2[nH]c(=O)ccc2c1)c1ccccc1)N1CCN(c2ccccn2)CC1

- IC50 (sOGT): 9 µM
Structure (SMILES): Cc1ccc(N2CCN(C(=O)[C@H](NS(=O)(=O)c3ccc4[nH]c(=O)ccc4c3)c3ccccc3)CC2)cc1

- Ki (sOGT): 2000 nM
Structure (SMILES): O=C([C@H](NS(=O)(=O)c1ccc2[nH]c(=O)ccc2c1)c1ccccc1)N1CCC(Cc2ccccc2)CC1

Structure (SMILES): O=C([C@@H](Cc1ccccc1)NS(=O)(=O)c1ccc2[nH]c(=O)ccc2c1)N(Cc1ccco1)Cc1cccs1 [PG34, (R)—N-(furan-2-ylmethyl)-2-(2-oxo-1,2-dihydroquinoline-6-sulfonamido)-3-phenyl-N-(thiophen-2-ylmethyl)propanamide]
- Effect on cell viability (CHO cells): affected cell viability similarly to OSMI-1
- Apoptotic signaling (CHO cells; up to 50 μM): Neither compound displayed an effect on apoptotic signaling
- Effect on global O-GlcNAcylation (OGT in CHO cells): no reduction in global O-GlcNAc levels
- In vitro inhibitory activity against OGT (ncOGT; radiometric capture assay): poor in vitro inhibitory activity against OGT

- IC50 [1]: 78.8 µM
- IC50 (ncOGT; 6 μM UDP-GlcNAc, 18 μM GST-Nup62): 11 µM and 11.1 µM
- Ki (ncOGT; non-linear regression, competitive inhibition fit, Nup62 substrate, read-out: Inhibition constant (Ki)): 5 µM
Structure (SMILES): CC(=O)N[C@@H]1C(OP(=O)(O)OP(=O)(O)OC[C@H]2O[C@@H](n3ccc(=O)[nH]c3=O)[C@H](O)[C@@H]2O)SC(CO)C(O)[C@@H]1O (some centres unmarked) [UDP-5SGlcNAc, reference compound]
